The source of these data is US20230118142A1, “AGENTS FOR USE IN THE TREATMENT OF TISSUE DAMAGE” (UCL BUSINESS LTD, priority 2020, published 2023).

The structures appear in SMILES notation.

For experiment [1], the target named is T1, CRP (Homo sapiens, UniProt P02741).
T1 sequence (P02741 19-224): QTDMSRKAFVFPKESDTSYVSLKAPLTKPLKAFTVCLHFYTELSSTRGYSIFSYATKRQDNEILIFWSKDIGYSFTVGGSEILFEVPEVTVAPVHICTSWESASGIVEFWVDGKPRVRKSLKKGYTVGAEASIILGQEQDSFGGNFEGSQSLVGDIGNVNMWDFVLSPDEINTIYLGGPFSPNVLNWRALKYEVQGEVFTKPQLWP
As to the kind of experiment: In vivo clearance of preformed CRP/ligand complexes in mice. More on the design: from tissue. To be noted: complexes formed in vitro, injected intravenously. How it is done: (i) CRP at 1 mg/ml in azide-free TC buffer (containing, in some experiments, ˜10^6 cpm/ml of ^125I-CRP) was incubated with a 5-fold molar excess of ligand. A control (ligand-free) sample was also prepared. Cross linking of CRP was confirmed by SEC in TC buffer of a small sample of complex.
(ii) Two groups of eight wild-type C57BL/6 mice (male; 23-27 weeks old) were used.
The complex or control (200 μl, 200 μg CRP) was injected into the tail vein of each mouse. A single timed collection of blood was taken from the tail vain of each mouse; a second terminal sample was also collected. This yielded 4 samples each at 30, 60, 120 and 180 min for control and treated groups.
(iii) Blood samples were weighed and CRP measured in the Roche assay and, in some cases by electroimmunoassay (4, 13). ^125I-CRP was measured by gamma counting (Perkin Elmer Wizard; protocol #1).
Complexes were prepared in vitro using ^125I-labelled CRP and an excess of ligand, and the mixture was then injected intravenously into mice. Clearance of CRP was monitored by counting of the ^125I-CRP tracer and stable CRP-ligand complexes were detected by lack of CRP detection in the Roche assay of the plasma samples. The formation of CRP/ligand complexes was confirmed by size exclusion chromatography before use in each in vivo experiment.

Experiment [2] addresses T1, CRP. As to the kind of experiment: Stability of pre-formed CRP/ligand complexes in vitro (mouse plasma, whole blood, shear forces, dialysis). More on the design: from tissue. How it is done: Pre-formed complexes of CRP/Pk-023 (with 5-fold molar excess of ligand over CRP pentamer), or CRP alone, were co-incubated, unstirred, in TC buffer (control), fresh mouse heparinised plasma or fresh heparinised whole mouse blood at 37° C. for up to 3 hours. CRP concentrations in plasma were then measured by Roche immunoassay. […] On addition of EDTA to dissociate CRP ligand binding, Roche CRP concentrations in all CRP/Pk-023 samples recovered to ˜70% of control values showing that the protein was still present and immunoreactive.
To determine whether shear forces might have an effect on stability, pre-formed CRP/Pk-023 complexes prepared with either a 2.5- or 5-fold molar excess of ligand were added to heparinised mouse plasma and stirred rapidly at room temperature for 3 h.
CRP/Pk-023 complexes formed at 5-fold ligand excess were stable during exhaustive dialysis against TC buffer for up to 96 h at room temperature, as shown by the Roche CRP assay values. After 30 h, ˜8% of the complex had dissociated, with a further 2.5% dissociation at 96 h. Similarly, CRP/Pk-023 complexes pre-formed in serum were stable during dialysis against TC buffer for 24 h at room temperature with shear forces produced by a magnetic stir bar inserted into the dialysis tubing. ^125I-CRP was included to correct for dilution account for any effects of dilution.

Experiment [3] concerns the target T1, CRP. As to the kind of experiment: Roche immunoturbidimetric assay: pure CRP. Format: binding. The arrangement: The final concentrations were 0.73 μM native pentameric CRP; from tissue. To be noted: pure CRP in TC buffer; read-out: IC50 (μM), SD; inhibition of Roche CRP immunoreactivity. A digest of the protocol:
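Purified human CRP (final 0.73 μM pentamer) incubated 1 h at 37° C with ligand (final 625-0.03 μM) in TC buffer. Remaining CRP quantified by Roche microparticle-enhanced immunoturbidimetric assay, one antibody recognising the ligand-binding B-face, as % of buffer control; EC50 from 4-parameter logistic fit.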

Turning to `O=P(O)(OCCCCCCCCOP(=O)(O)O[C@@H]1CN2CCC1CC2)O[C@@H]1CN2CCC1CC2` [Pk-023, [(3S)-1-azabicyclo[2.2.2]octan-3-yloxy]({[8-({[(3S)-1-azabicyclo[2.2.2]octan-3-yloxy](hydroxy)phosphoryl}oxy)octyl]oxy})phosphinic acid], the “Time Roche CRP value suppressed (persistence of preformed complex in circulation)” value on CRP [1] is recorded as “suppressed at 15 min but was had returned to control value at 60 min”. Further, the “Stability of complex to shear forces (Roche CRP reactivity)” value at CRP [2] (2.5- or 5-fold ligand excess, heparinised mouse plasma, stirred rapidly, room temperature, 3 h) is given as “stable throughout the experiment”. For the same compound, the “Complex dissociated during dialysis against TC buffer” value at CRP [2] (5-fold ligand excess, room temperature, after 30 h) is listed as approximately 8%. Also, the “Stability of pre-formed CRP/ligand complex (Roche CRP)” value on CRP [2] (5-fold ligand excess, TC buffer, mouse heparinised plasma or whole mouse blood, 37° C., up to 3 hours) was “stable throughout the experiment”. In addition, at CRP [2] (after incubation in mouse plasma/whole blood), the “Roche CRP concentration recovered on addition of EDTA” value is given as ~70 % of control values. Moreover, the “Further dissociation of complex during dialysis” value at CRP [2] (at 96 h) came out at 2.5%. The “Stability of complexes pre-formed in serum during dialysis” value on CRP [2] (dialysis against TC buffer 24 h, room temperature, with shear forces) was “stable”. For the same compound, the IC50 at CRP [3] worked out at 0.6 µM.
